From patent US9340590B2 (priority 2011, dated 2016)
Like-named read-outs stand apart in the source and are kept apart here. Positions of bridges follow the written chain, without caps; N, C: chain ends. Residues, ends and D or L forms follow the SMILES beside them.

Assays:
Test in all cases: cell-based
hNav1.5 = hNav1.5 (Homo sapiens, UniProt Q14524); details: IonWorks Quattro, read-out: IWQ Use Nav1.5
hNav1.3 = hNav1.3 (Homo sapiens, UniProt Q9NY46); details: IonWorks Quattro, read-out: IWQ Use Nav1.3
hNav1.7 = hNav1.7 (Homo sapiens, UniProt Q15858); format: cell-based; details: IonWorks Quattro, read-out: IWQ Use Nav1.7
[1] = clamped to −110 mV, depolarized to −10 mV, 5 min after compound, n=2

Sequence of hNav1.3 (Q9NY46 whole entry, looked up): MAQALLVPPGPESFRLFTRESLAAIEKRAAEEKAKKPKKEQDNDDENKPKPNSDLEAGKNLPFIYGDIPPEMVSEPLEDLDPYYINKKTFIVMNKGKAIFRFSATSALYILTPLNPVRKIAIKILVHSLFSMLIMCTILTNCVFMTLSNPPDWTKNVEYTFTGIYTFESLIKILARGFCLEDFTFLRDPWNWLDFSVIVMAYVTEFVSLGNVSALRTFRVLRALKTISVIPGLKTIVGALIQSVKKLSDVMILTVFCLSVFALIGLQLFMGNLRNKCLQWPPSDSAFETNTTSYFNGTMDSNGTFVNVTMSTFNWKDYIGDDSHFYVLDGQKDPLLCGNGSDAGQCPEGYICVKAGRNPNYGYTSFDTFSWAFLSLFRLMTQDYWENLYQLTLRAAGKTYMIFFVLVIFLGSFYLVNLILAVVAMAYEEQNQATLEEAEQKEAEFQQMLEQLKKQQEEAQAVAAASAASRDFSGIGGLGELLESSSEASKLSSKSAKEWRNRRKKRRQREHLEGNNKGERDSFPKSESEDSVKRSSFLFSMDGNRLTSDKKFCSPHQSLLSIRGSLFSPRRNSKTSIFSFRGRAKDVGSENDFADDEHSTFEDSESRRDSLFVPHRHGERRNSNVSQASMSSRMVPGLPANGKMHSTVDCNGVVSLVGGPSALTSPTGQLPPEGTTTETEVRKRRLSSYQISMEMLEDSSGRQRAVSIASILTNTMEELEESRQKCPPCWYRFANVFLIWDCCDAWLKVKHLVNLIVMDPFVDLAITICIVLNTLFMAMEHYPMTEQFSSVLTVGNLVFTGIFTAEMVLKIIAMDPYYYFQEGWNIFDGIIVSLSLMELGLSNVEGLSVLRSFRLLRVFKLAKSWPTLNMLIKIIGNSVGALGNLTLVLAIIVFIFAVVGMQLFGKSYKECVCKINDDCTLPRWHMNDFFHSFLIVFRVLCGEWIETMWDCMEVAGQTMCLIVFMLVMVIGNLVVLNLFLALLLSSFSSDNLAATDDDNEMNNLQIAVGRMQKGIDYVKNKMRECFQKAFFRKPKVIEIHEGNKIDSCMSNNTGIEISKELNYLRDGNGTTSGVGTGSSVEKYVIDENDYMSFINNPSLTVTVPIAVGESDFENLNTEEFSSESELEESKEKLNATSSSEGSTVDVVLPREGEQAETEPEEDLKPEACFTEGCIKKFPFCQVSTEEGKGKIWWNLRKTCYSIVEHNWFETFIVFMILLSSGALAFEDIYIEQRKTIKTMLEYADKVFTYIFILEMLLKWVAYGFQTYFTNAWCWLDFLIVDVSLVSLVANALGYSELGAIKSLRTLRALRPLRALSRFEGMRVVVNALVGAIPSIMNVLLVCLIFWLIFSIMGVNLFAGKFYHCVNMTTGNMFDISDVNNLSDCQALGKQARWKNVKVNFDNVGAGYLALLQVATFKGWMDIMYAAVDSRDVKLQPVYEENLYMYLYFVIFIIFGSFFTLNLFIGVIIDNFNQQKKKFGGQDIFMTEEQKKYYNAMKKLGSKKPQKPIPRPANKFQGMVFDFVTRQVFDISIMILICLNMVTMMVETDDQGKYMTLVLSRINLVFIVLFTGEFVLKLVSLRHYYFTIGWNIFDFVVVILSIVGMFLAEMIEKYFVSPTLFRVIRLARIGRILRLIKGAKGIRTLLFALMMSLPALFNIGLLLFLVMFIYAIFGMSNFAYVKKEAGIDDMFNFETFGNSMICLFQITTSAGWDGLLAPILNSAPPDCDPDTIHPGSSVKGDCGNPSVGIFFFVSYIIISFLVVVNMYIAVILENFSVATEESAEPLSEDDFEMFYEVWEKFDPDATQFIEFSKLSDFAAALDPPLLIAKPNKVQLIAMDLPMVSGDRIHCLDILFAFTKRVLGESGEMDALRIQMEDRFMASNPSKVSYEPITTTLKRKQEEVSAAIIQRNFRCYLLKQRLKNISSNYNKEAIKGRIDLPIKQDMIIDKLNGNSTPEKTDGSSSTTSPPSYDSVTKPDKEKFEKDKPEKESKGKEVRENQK
Sequence of hNav1.5 (Q14524 whole entry, looked up): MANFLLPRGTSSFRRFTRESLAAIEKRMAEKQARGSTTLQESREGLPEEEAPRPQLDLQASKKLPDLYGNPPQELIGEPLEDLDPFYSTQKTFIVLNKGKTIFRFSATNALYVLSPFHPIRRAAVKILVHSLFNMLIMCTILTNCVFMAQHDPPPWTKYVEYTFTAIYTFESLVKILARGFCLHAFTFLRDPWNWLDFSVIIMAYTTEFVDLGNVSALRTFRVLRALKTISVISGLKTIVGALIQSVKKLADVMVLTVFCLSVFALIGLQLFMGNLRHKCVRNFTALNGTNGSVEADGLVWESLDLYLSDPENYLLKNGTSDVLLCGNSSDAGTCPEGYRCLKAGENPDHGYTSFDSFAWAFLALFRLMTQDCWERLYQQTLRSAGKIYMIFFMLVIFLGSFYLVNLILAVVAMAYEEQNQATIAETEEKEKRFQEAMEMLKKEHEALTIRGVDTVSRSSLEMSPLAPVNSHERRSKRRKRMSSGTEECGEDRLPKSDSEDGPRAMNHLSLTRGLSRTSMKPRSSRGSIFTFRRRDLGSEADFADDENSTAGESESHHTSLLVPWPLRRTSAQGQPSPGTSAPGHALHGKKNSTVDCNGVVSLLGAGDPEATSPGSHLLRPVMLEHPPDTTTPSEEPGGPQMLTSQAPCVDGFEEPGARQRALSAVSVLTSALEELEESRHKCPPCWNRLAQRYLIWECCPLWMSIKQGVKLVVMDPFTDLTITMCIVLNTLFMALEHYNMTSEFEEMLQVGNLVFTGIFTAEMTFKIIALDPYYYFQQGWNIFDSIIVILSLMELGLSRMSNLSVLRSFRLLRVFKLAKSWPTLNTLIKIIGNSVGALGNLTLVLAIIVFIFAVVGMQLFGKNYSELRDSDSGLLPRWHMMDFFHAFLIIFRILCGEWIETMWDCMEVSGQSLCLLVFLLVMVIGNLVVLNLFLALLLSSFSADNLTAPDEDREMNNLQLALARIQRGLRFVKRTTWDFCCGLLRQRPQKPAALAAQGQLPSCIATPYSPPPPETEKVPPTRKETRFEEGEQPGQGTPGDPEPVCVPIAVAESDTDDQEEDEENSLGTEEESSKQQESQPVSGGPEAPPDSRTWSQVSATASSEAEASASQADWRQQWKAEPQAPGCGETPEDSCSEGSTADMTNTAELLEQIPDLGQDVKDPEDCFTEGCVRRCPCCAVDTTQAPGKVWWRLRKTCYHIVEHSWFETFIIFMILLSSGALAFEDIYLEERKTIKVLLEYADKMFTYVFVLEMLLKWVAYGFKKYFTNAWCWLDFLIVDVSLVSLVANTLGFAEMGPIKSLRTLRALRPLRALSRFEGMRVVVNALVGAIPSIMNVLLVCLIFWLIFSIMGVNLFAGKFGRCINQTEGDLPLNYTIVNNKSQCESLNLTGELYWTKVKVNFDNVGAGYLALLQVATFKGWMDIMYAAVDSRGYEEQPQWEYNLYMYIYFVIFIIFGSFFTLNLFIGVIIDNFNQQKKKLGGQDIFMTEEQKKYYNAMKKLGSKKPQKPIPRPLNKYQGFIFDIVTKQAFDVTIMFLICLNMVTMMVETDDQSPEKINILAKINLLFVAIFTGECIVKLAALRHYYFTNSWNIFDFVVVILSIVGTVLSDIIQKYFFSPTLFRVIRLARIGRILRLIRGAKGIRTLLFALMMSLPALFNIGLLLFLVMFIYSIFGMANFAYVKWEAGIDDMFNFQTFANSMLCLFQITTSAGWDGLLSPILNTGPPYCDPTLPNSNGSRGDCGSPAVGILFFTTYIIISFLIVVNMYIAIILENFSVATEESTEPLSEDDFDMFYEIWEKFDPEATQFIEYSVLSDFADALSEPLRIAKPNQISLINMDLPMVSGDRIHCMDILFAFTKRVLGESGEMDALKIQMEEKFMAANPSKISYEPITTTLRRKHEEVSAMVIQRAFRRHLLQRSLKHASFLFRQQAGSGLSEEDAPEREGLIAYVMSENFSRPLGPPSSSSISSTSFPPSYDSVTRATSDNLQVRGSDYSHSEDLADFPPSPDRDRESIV

Question: Which results are given for CC[C@H](C)[C@@H]1NC(=O)[C@@H]2CSSC[C@@H]3NC(=O)[C@H](C(C)C)NC(=O)[C@H](CC(C)C)NC(=O)[C@H](CC(N)=O)NC(=O)[C@@H]4CCCN4C(=O)[C@H](CCCNC(=N)N)NC(=O)[C@H](CSSC[C@H](NC(=O)[C@@H](N)CC(=O)O)C(=O)N[C@@H](CC(C)C)C(=O)NCC(=O)N[C@@H](Cc4ccccc4)C(=O)N[C@@H](CCSC)C(=O)N[C@@H](CCCNC(=N)N)C(=O)N[C@@H](CCCCN)C(=O)N2)NC(=O)[C@H](CSSC[C@@H](C(=O)N[C@@H](CCCCN)C(=O)N[C@@H](Cc2ccc(O)cc2)C(=O)N[C@H](C(=O)N[C@@H](Cc2ccccc2)C(N)=O)C(C)C)NC(=O)[C@H](Cc2c[nH]c4ccccc24)NC(=O)[C@H](CCCNC(=N)N)NC(=O)[C@H](Cc2c[nH]cn2)NC(=O)[C@H](CC(C)C)NC(=O)[C@H](CCCNC(=N)N)NC(=O)[C@H](CO)NC3=O)NC(=O)[C@H](CCCCN)NC(=O)[C@H](CC(=O)O)NC(=O)[C@H](CC(N)=O)NC(=O)[C@H](CC(=O)O)NC(=O)[C@@H]2CCCN2C1=O [compound 445] (H-DCLGFMRKCIPDNDKCCRPNLVCSRLHRWCKYVF-NH2; disulfide 2-17, 9-23, 16-30)?
Answer: IC50 (hNav1.5; use-dependent block, hNav1.5): > 5000 nM; IC50 (hNav1.3; use-dependent block, hNav1.3): 60 nM; IC50 (hNav1.7; use-dependent block, hNav1.7): 30 nM

Question: What does the source list for CCCC[C@@H]1NC(=O)CNC(=O)[C@H](CC(C)C)NC(=O)[C@@H](NC(=O)[C@@H](N)CC(=O)O)CSSC[C@@H]2NC(=O)[C@@H]3CSSC[C@@H](C(=O)N[C@@H](CCCCN)C(=O)N[C@@H](Cc4ccc(O)cc4)C(=O)N[C@H](C(=O)N[C@@H](Cc4ccccc4)C(N)=O)C(C)C)NC(=O)[C@H](Cc4c[nH]c5ccccc45)NC(=O)[C@H](CCCCN)NC(=O)[C@H](Cc4c[nH]cn4)NC(=O)[C@H]([C@@H](C)O)NC(=O)[C@H](CCCNC(=N)N)NC(=O)[C@H](CO)NC(=O)[C@H](CSSC[C@H](NC(=O)[C@H](CCCCN)NC(=O)[C@H](CCCNC(=N)N)NC(=O)[C@H](CC(C)C)NC1=O)C(=O)N[C@@H]([C@@H](C)CC)C(=O)N1CCC[C@H]1C(=O)N[C@@H](CC(=O)O)C(=O)N[C@@H](CC(N)=O)C(=O)N[C@@H](CC(=O)O)C(=O)N[C@@H](CCCCN)C(=O)N3)NC(=O)[C@H](C(C)C)NC(=O)[C@H](CC(C)C)NC(=O)[C@H](CC(N)=O)NC(=O)[C@@H]1CCCN1C(=O)[C@H](CCCNC(=N)N)NC2=O [compound 638]?
Answer: IC50 (hNav1.5; use-dependent protocol, hNav1.5): 10600 nM; IC50 (hNav1.3; use-dependent protocol, hNav1.3): 99 nM; IC50 (hNav1.7; use-dependent protocol, hNav1.7): 25 nM

Question: Which results are given for CC[C@H](C)[C@@H]1NC(=O)[C@@H]2CSSC[C@@H]3NC(=O)[C@H](C(C)C)NC(=O)[C@H](CC(C)C)NC(=O)[C@H](CC(N)=O)NC(=O)[C@@H]4CCCN4C(=O)[C@H](CCCNC(=N)N)NC(=O)[C@H](CSSC[C@H](NC(=O)[C@@H](N)CC(=O)O)C(=O)N[C@@H](CC(C)C)C(=O)NCC(=O)N4CCC[C@H]4C(=O)N[C@@H](CCSC)C(=O)N[C@@H](CCCNC(=N)N)C(=O)N[C@@H](CCCCN)C(=O)N2)NC(=O)[C@H](CSSC[C@@H](C(=O)N[C@@H](CCCCN)C(=O)N[C@@H](Cc2ccc(O)cc2)C(=O)N[C@H](C(=O)N[C@@H](Cc2ccccc2)C(N)=O)C(C)C)NC(=O)[C@H](Cc2c[nH]c4ccccc24)NC(=O)[C@H](CCCCN)NC(=O)[C@H](Cc2c[nH]cn2)NC(=O)[C@H]([C@@H](C)O)NC(=O)[C@H](CCCNC(=N)N)NC(=O)[C@H](CO)NC3=O)NC(=O)[C@H](CCCCN)NC(=O)[C@H](CC(=O)O)NC(=O)[C@H](CC(N)=O)NC(=O)[C@H](CC(=O)O)NC(=O)[C@@H]2CCCN2C1=O [SEQ ID NO: 269] (H-DCLGPMRKCIPDNDKCCRPNLVCSRTHKWCKYVF-NH2; disulfide 2-17, 9-23, 16-30)?
Answer: IC50 (hNav1.5; [1]): 6610 nM; IC50 (hNav1.3; [1]): 1730 nM; IC50 (hNav1.7; [1]): 1170 nM
